Data as given in patent US4705845A, “Process for sulphation and phosphorylation of proteins and peptides” (Rockefeller University, priority 1986, dated 1987).

Key:
[1] = Hypoglycemic potency (United States Pharmacopeia method); type: in vivo; conditions: relative to unmodified insulin; USP Vol. 18 method
Description: Hypoglycemic potency of the modified insulin was measured as described in "The United States Pharmacopeia", Mark Publishing Co., Vol. 18, pp. 883-884 (1964). Bioactivity was 62% as compared to unmodified insulin.

[2] = Aggregation tendency assessed by turbidity of the solution (absorbance difference at 400 nm); type: physicochemical; conditions: 0 to 0.1 A non-aggregated, above 0.3 aggregated
Description: The tendency of modified insulin to aggregate was assessed by measuring the turbidity of the solution. This method is based on the work of Leach and Scheraga (S. J. Leach and H. A. Scheraga (1964) J. Amer. Chem. Soc. 82, 4790-4792) who stated that absorbancy observed in insulin solutions between 350 and 600 nm is due to light scattering of aggregated particles. Briefly, 10 mg of sample was dissolved in 2 ml of isotonic phosphate buffered saline (PBS) and the solution was passed 50 times through a 3 cc plastic syringe (B-D Plastipak, Luer Lok Type) equipped with a 26G 3/8" hypodermic needle. After deaeration under vacuo for 60 min. 1 ml of this solution was diluted with 1 ml of PBS, and the turbidity was measured on a Hewlett Packard spectrophotometer type HP 8590, utilizing as a blank a non-aggregated sample diluted by 1 volume of 8M guanidine hydrochloride. Aggregation was measured by the difference in absorbance determined at 400 nm for the two samples. Non-aggregated samples gave absorbance values of 0 to 0.1 Absorbance Unit(A), Values above 0.3 were considered to be aggregated. Utilizing this assay the turbidity of this modified insulin dissolved in PBS was 0.08 A. In contrast unmodified porcine sodium insulin dissolved in distilled water has an absorbance of 0.51 A when treated according to the above procedure.

Substance | Bioactivity as compared to unmodified insulin (hypoglycemic potency) [1] [%] | Turbidity (difference in absorbance at 400 nm) ([2]; dissolved in PBS, passed 50 times through a 26G needle) [A] | Turbidity (difference in absorbance at 400 nm) ([2]; dissolved in distilled water, treated according to the same procedure) [A]
Example 1: porcine sodium insulin sulphated with sulfuric acid and N,N' dicyclohexyl carbodiimide in DMF; mixture of sulphated isomers | 62 | 0.08 | 
Example 4: porcine sodium insulin phosphorylated with concentrated phosphoric acid and DCC in DMF | 85 |  | 
unmodified porcine sodium insulin: unmodified porcine sodium insulin, starting material and comparator [reference compound] |  |  | 0.51
